Test results taken from patent US20100298166A1, “CELL POPULATIONS FOR POLYPEPTIDE ANALYSIS AND USES OF SAME” (priority 2008, published 2010).
Where two headings read alike, the source gives them in different places. Numbered stars: 1 amine (or outer) side, 2 acyl side, 3 side chain; on linkers, the order of the positions; unused ones are H or OH. Bridge positions count the residues as written; N and C are the ends. Square brackets hold non-standard residues; d marks the D form. Peptide text beside a SMILES is read from it. I, II: the chains in the order shown. Actinocin(9to1) = Cc1c2oc3c(C)ccc(C(=O)[*:1])c3nc-2c(C(=O)[*:2])c(N)c1=O; NMeV = CN[C@H](C(=O)O)C(C)C; Sar = CNCC(=O)O

Columns and labels:
Format in all cases: cell-based, human
[1] = tested on: H1299 non-small cell lung carcinoma cell line; assay: Time-lapse microscopy of cell death, motility and growth arrest after drug addition; conditions: CPT 10 uM
Procedure: (§1) Long period time-lapse microscopy: Time-lapse movies were obtained (at 20× magnification) as described by Sigal et al. (Sigal, Milo et al. 2006, supra) with an automated, incubated (including humidity and CO2 control) Leica DMIRE2 inverted fluorescence microscope and an ORCA ER cooled CCD camera (Hamamatsu Photonics). The system was controlled by ImagePro5 Plus (Media Cybernetics) software which integrated time-lapse acquisition, stage movement, and software based auto-focus. During the experiment, cells were grown and visualized in 12-well coverslip bottom plates (MatTek) coated with […] fibronectin (Sigma). For each well time lapse movies were obtained at four fields of view. Each movie was taken at a time resolution of 20 minutes and was filmed for at least three days (over 200 time points). Each time point included three images—phase contrast, red and yellow fluorescence.
Drug Materials: Camptothecin (CPT; C9911 Sigma), was dissolved in DMSO (hybri-max, D2650 Sigma) to achieve a stock solution of 10 mM. In each experiment, drug was diluted to 10 μM in a transparent growth medium (RPMI, X PenStrep, 10% FCS, w/o riboflavin, w/o phenol red, Bet Haemek). Growth medium (2 ml) was replaced by the diluted drug (2 ml) under the microscope. […]

TOP1 [2] = conditions: for effects on TOP1 (nucleolar exit, degradation, cytoplasmic accumulation): other DNA damaging drugs
Procedure: as §1
(§2) Drug Materials: Camptothecin (CPT; C9911 Sigma), was dissolved in DMSO (hybri-max, D2650 Sigma) to achieve a stock solution of 10 mM. In each experiment, drug was diluted to 10 μM in a transparent growth medium (RPMI, X PenStrep, 10% FCS, w/o riboflavin, w/o phenol red, Bet Haemek). Growth medium (2 ml) was replaced by the diluted drug (2 ml) under the microscope. The same procedure was carried out for the following drugs: Etoposide (E1383 Sigma), diluted to 33.3 μM and for Cisplatinum (P4394 Sigma) diluted to 40 μM. The stock solution for ActD (A1410 Sigma) was 1 mg/ml and was diluted to 1 μg/ml.
Image analysis of time lapse movies: A custom written image analysis tool was used developed using the Matlab image processing toolbox environment (Mathworks, Natick, Mass.). The main steps include; image correction, segmentation, tracking of the cells and automated identification of cell phenotypes (mitosis and cell death). Image background correction (flat field correction and background subtraction) was carried out as previously described (Sigal, Milo et al. 2006, supra). […] The main steps of the segmentation process are: 1) Differentiation between cells and background by global image threshold using Otsu's method (Otsu 1979, IEEE Transactions on Systems, Man, and Cybernetics 9(1): 62-66); 2) Segmentation of neighboring cells by applying the seeded watershed segmentation algorithm. Seeds were obtained by smoothening the red intensity image and usage of bright nuclei as cell seeds (by identifying local maxima)—one seed per cell; 3) Nuclei segmentation following cell segmentation; each cell was independently stretched between zero and one and a fixed threshold was used to differentiate between the cytoplasm and the nuclei; 4) Tracking of cells was performed by analyzing the movie from end to start and linking each segmented cell to the cell in the previous image with the closest centroid; 5) The automated cell death identification algorithm utilizes the morphological changes correlated with dying cells: rounding followed by blebbing and an explosion of the outer membrane or its collapse. An artificial neural network (ANN) algorithm was constructed that could identify each one of these morphological patters similar to the method previously described in (Eden 2005, IEEE, Transactions on Medical Imaging 24: 1011-1024). Briefly, two sets of images were constructed: The first contained 400 cell images in different stages of cell death and the second contained 400 live cell images. For each image, a collection of high-level image features was computed. […] This process transforms each image into a multi dimensional vector of features.

TOP1 [3] = assay: Immunoblots with anti-TOP1 and anti-GFP after CPT
Procedure: Immunoblots against 20 selected proteins: Total cell lysates were prepared with RIPA buffer (Pierce) according to manufacturer's instructions. The protein concentrations were determined by BCA protein assay kit (Thermo scientific). Equal amounts of proteins were resolved on SDS-PAGE and subjected to immunoblotting analysis by using the antibodies listed below. The intensity of protein bands was quantified by using ImageJ software.
Anti-Myosin IIA (M8064) and anti-GFP (11814460001) antibodies were from Sigma and Roche, respectively.

[4] = tested on: YFP tagged proteins in H1299 cells; assay: Temporal profiles of total fluorescence and cell-cell variability of YFP tagged proteins in response to drug
Procedure: as §1
Image analysis of time lapse movies: A custom written image analysis tool was used developed using the Matlab image processing toolbox environment (Mathworks, Natick, Mass.). The main steps include; image correction, segmentation, tracking of the cells and automated identification of cell phenotypes (mitosis and cell death). Image background correction (flat field correction and background subtraction) was carried out as previously described (Sigal, Milo et al. 2006, supra). No significant bleaching was observed (on average less than 3% over the duration of the experiment). […] The main steps of the segmentation process are: 1) Differentiation between cells and background by global image threshold using Otsu's method (Otsu 1979, IEEE Transactions on Systems, Man, and Cybernetics 9(1): 62-66); 2) Segmentation of neighboring cells by applying the seeded watershed segmentation algorithm. […]
Protein dynamics clustering: The five average population dynamics profiles depicted in FIG. 8B were generated in the following manner: The levels of each protein were smoothed using a median filter and linearly scaled between −1 and 1. The distance between every pair of proteins was measured in terms of Pearson correlation and clustering was performed using a k-means algorithm (reproducibility of results using different seeds is >99%). […]

[5] = tested on: thyredoxin and thyredoxin reductase; assay: Nuclear/cytoplasmic localization changes of tagged proteins following drug addition
Procedure: as §1
Image analysis of time lapse movies: A custom written image analysis tool was used developed using the Matlab image processing toolbox environment (Mathworks, Natick, Mass.). […]
Nuclear localization changes following drug addition: The localization of each protein across the experiment was analyzed and the ratio of cytoplasmic to nuclear fluorescence was followed as a function of time. […] Both rapid and slow localization changes between the cytoplasm and the nucleus were detected (FIGS. 14A-C).

nucleolar proteins = assay: Quantitation of nucleolar translocations of tagged proteins; conditions: 1 μg/ml
Procedure: as §2
Then, for each of the selected clones, the present inventors calculated the ratio of fluorescence intensity between the top and bottom ten percent pixels in individual nuclei and averaged over the population. Clones with a max/min change of over 20 percent in this average during the experiment were inspected manually to verify the source of change in pixel intensity distribution and were classified as clones showing nucleolar translocation.
Finally, to quantify the extent and direction (nucleoli to nucleoplasm or vise versa) of the translocation, the present inventors calculated the ratio between mean fluorescence intensity of nucleoli vs. nucleoplasm (Rncll/nuc) at the two time points were the max/min ratio was maximized and minimized. […]

DDX5 = assay: Bimodal behavior of tagged DDX5 in individual cells in response to drugs; conditions: Etoposide 33.3 μM, Cis-platinum 40 μM
Procedure: as §2
Determination of ‘bimodal’ behaviors: The coefficient of variance (CV defined as the ration between the std between cells and the mean) was measured for 400 proteins for 47 hours following addition of CPT (at a 20 minute resolution) (see FIGS. 13A-B). All CVs were normalized to average 1 (CV(i,j)/mean(mean(CV)) where i is protein number (i=1 . . . 400) and j is timepoint (j=1 . . . 141)). All proteins deviating 3 standard deviations from the average normalized CV were considered as ‘bimodal’ candidates (N=59). Following manual inspection, 30 of these proteins listed in Table 4 were denoted as bimodal.

Structure (SMILES): CC[C@@]1(O)C(=O)OCc2c1cc1n(c2=O)Cc2cc3ccccc3nc2-1 [CPT, Camptothecin]
- time to loss of motility and growth arrest after drug addition [1]: about 10 hours
- cells showing cell rounding and blebbing (morphological correlates of cell death) ([1]; after 36 hours): about 15%
- timescale of decrease of total cellular fluorescence of tagged TOP1 (TOP1 [2]; CPT): under an hour
- nuclear exit of tagged TOP1 (TOP1 [2]; etoposide at equivalently lethal dose, CPT at several doses): exits from the nucleus to the cytoplasm in a CPT dose dependent manner
- timescale of fluorescence accumulation in the cytoplasm in the TOP1 tagged clone (TOP1 [2]; following CPT addition): ~5 h
- time for TOP1 levels in the nucleoli to drop after drug addition (TOP1 [2]; tagged TOP1, individual cells): less than 2 minutes
- time within which most TOP1 is degraded (TOP1 [3]): ≤ 4 h
- largest changes in fluorescence ([4]; CPT 10 uM): about five
- median dynamic range of response, change in fluorescence ([4]; CPT 10 uM): 1.3 fold
- proteins showing a decrease in intensity in response to the drug ([4]; CPT 10 uM, 48 hours tracking): about 70%
- increase of cell-cell variability (noise) following drug addition, on average ([4]; std between cells divided by mean): 30%
- time to increase in nuclear/cytoplasmic ratio of thyredoxin and thyredoxin reductase ([5]; after drug addition): ≤ 8 h
- proteins showing significant change in nuclear localization (>20% change in cytoplasm/nuclear fluorescence ratio) ([5]; all tagged proteins, after CPT addition): about 1%

Structure (SMILES): Cc1c2oc3c(C)ccc(C(=O)N[C@@H]4C(=O)N[C@H](C(C)C)C(=O)N5CCC[C@H]5C(=O)N(C)CC(=O)N(C)[C@@H](C(C)C)C(=O)O[C@@H]4C)c3nc-2c(C(=O)N[C@@H]2C(=O)N[C@H](C(C)C)C(=O)N3CCC[C@H]3C(=O)N(C)CC(=O)N(C)[C@@H](C(C)C)C(=O)O[C@@H]2C)c(N)c1=O [actinomycinD, actinomycin-D] (I: T[dV]P[Sar][NMeV] / II: T[dV]P[Sar][NMeV]; ester I:1-I:C, II:1-II:C; linker I:N-II:N via Actinocin(9to1))
- proteins with nucleolar dynamics similar to those seen with CPT (nucleolar proteins): 4 out of 5

Structure (SMILES): N.N.[Cl][Pt][Cl] [cisplatin, Cisplatinum]
- effects on TOP1 (nucleolar exit, degradation, cytoplasmic accumulation) (TOP1 [2]): did not show any of these effects on TOP1
- bimodal behavior of tagged DDX5 (DDX5): did not show bimodal behavior

Structure (SMILES): COc1cc([C@@H]2c3cc4c(cc3[C@@H](O[C@@H]3O[C@@H]5CO[C@@H](C)O[C@H]5[C@H](O)[C@H]3O)[C@H]3COC(=O)[C@H]23)OCO4)cc(OC)c1O [etoposide, Etoposide]
- nuclear exit of tagged TOP1 (TOP1 [2]): does not occur
- effects on TOP1 (nucleolar exit, degradation, cytoplasmic accumulation) (TOP1 [2]): did not show any of these effects on TOP1
- bimodal behavior of tagged DDX5 (DDX5): did not show bimodal behavior
